Measured values as given in EP0552612A2, “Methods for determining and isolating compounds which bind directly to nucleosolic proteins” (F. HOFFMANN-LA ROCHE AG, priority 1992, dated 1993).

How the values were obtained:
[1] = test system: retinoic acid receptors α, β or γ; assay: Competitive binding with ³H-T-RA to nucleosol of RAR-transfected COS-1 cells; set-up: species or system human; settings: concentrations as high as 1 µM; 5 nM ³H-T-RA, 4°C, 30 minutes
Experimental: Competitive binding studies were performed as follows. COS-1 cells were transfected with the cDNAs encoding RARs α, β or γ in the expression vector pSG5 (described in Example 1). The cells were cultured for 72 hours and the nucleosol fraction isolated (14). Nucleosol fractions were incubated (14) at 4°C for 30 minutes with 5 nM ³H-T-RA with various concentrations of unlabeled 13-cis RA. Bound was separated from free radioactivity using PD10 columns as described in Example 1 above.

[2] = biological target: T1, RARα (Homo sapiens, UniProt P10276); assay: Displacement of radiolabel from nucleosol of COS-1 cells treated in culture with ³H-T-RA; settings: excess unlabeled T-RA (10 µM), 4 hours at 4°C
T1 sequence (P10276 1-462): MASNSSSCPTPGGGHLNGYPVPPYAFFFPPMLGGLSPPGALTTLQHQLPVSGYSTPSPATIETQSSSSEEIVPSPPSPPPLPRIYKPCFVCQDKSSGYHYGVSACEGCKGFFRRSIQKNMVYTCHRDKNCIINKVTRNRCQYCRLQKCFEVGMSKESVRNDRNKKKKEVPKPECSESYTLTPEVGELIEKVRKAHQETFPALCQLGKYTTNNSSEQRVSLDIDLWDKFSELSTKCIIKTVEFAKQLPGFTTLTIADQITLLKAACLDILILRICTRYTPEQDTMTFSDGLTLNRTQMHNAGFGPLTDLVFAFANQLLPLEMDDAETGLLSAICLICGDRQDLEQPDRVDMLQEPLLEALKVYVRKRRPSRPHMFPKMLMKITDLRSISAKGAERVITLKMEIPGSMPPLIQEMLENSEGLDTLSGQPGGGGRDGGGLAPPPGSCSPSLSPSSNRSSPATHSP

[3] = biological target: T1, RARα; assay: In vitro binding of ³H-T-RA to nucleosol of transfected COS-1 cells; settings: nucleosol from RARα-transfected COS-1 cells; 10 nM ³H-T-RA, 2 hours at 4°C

Structure (SMILES): CC1=C(/C=C/C(C)=C/C=C/C(C)=C\C(=O)O)C(C)(C)CCC1 [13-cis RA, 13-cis retinoic acid]
- competition with ³H-T-RA for binding [1]: minimal competition for binding

Structure (SMILES): CC1=C(/C=C/C(C)=C/C=C/C(C)=C/C(=O)O)C(C)(C)CCC1 [T-RA, all-trans retinoic acid]
- displacement of bound radiolabel [2]: displaces radioactivity bound in the RARα nucleosol

Structure (SMILES): [3H]C(/C=C(C)/C=C/C1=C(C)CCCC1(C)C)=C([3H])\C(C)=C\C(=O)O [³H-T-RA]
- binding of ³H-T-RA [3]: considerable binding
